Patent publication US4206156A, “Hydroxyaminohydrocarbonphosphonic acids” (Fujisawa Pharmaceutical Company, Limited, priority 1976, dated 1980)
Counter-ions that a name gives are not always drawn.

Tests used:
Acute toxicity, rat = conditions: in vivo, male, observed one week
Description: (§1) Litchfield-Wilcoxon method

Acute toxicity, mouse = assay: Acute toxicity, mouse; parameters: species or system Mouse (ICR-strain); conditions: in vivo, observed one week
Description: Male and Female mice of ICR-strain, aged 6 weeks were used.
as §1

[1] = test system: pathogenic microorganisms; conditions: in words; from work filed as U.S. application Ser. No. 819,551; cited from earlier work
Salmonella typhi 0-901 [2] = assay: M.I.C., serial agar dilution, nutrient agar (inoculum 10^6 cells/ml); assay type: cell-based; conditions: Salmonella enterica, 20 h
Description: (§2) M.I.C. test was conducted by the usual serial agar dilution method, (inoculum:10^6 cells/ml.), using a nutrient agar which was incubated at 37° C. for 20 hours. M.I.C. value is expressed as the minimum concentration of the monoammonium salt of 3-(N-formyl-N-hydroxyamino)-propylphosphonic acid (mcg/ml.) which inhibits growth of microorganisms.

Shigella flexneri IaEW8 [3] = assay: as above; assay type: cell-based; conditions: 37° C., 20 hours
Description: as §2

[4] = test system: Escherichia coli NIHJ JC-2; assay: as above; assay type: cell-based; conditions: NIHJJC2, 37° C., 20 hours
Description: as §2

[5] = test system: Citrobacter freundii 1381-3; assay: as above; assay type: cell-based; conditions: 13813, 37° C., 20 hours
Description: as §2

[6] = test system: Serratia marcescens 1421-4; assay: as above; assay type: cell-based; conditions: 14214, 37° C., 20 hours
Description: as §2

[7] = test system: Salmonella typhimurium 1406; assay: as above; assay type: cell-based; conditions: Salmonella enterica, 37° C., 20 hours
Description: as §2

[8] = test system: Pseudomonas aeruginosa IAM 1095; assay: as above; assay type: cell-based; conditions: IAM1095, 37° C., 20 hours
Description: as §2

[9] = test system: Escherichia coli 1341-18(R); assay: as above; assay type: cell-based; conditions: 20 h
Description: as §2

[10] = test system: Enterobacter cloacae 1401-4; assay: as above; assay type: cell-based; conditions: 14014, 37° C., 20 hours
Description: as §2

Proteus morganii 1433-2 [11] = assay: as above; assay type: cell-based; conditions: Morganella morganii, 14332, 37° C., 20 hours
Description: as §2

[12] = test system: Proteus inconstans 1436-21; assay: as above; assay type: cell-based; conditions: Providencia alcalifaciens, 143621, 37° C., 20 hours
Description: as §2

[13] = test system: Bacillus substilis ATCC6633; assay: as above; assay type: cell-based; conditions: ATCC6633, 20 h
Description: as §2

Proteus rettgeri 1434-3 [14] = assay: as above; assay type: cell-based; conditions: Providencia rettgeri, 14343, 37° C., 20 hours
Description: as §2

[15] = test system: Enterobacter aerogenes 1402-10; assay: as above; assay type: cell-based; conditions: Klebsiella aerogenes, 140210, 37° C., 20 hours
Description: as §2

[16] = test system: Proteus mirabilis 1432-75; assay: as above; assay type: cell-based; conditions: 143275, 37° C., 20 hours
Description: as §2

[17] = test system: Klebsiella pneumoniae NCTC 418; assay: as above; assay type: cell-based; conditions: NCTC418, 37° C., 20 hours
Description: as §2

[18] = test system: Staphylococcus aureus FDA209P JC-1; assay: as above; assay type: cell-based; conditions: 37° C., 20 hours
Description: as §2

[19] = test system: Salmonella paratyphi A-1015; assay: as above; assay type: cell-based; conditions: Salmonella enterica, 20 h
Description: as §2

[20] = test system: Salmonella enteritidis 1891; assay: as above; assay type: cell-based; conditions: Salmonella enterica, 37° C., 20 hours
Description: as §2

[21] = test system: Proteus vulgaris IAM 1025; assay: as above; assay type: cell-based; conditions: IAM1025, 37° C., 20 hours
Description: as §2

Sarcina lutea PCI 1001 [22] = assay: as above; assay type: cell-based; conditions: Micrococcus luteus, PCI1001, 37° C., 20 hours
Description: as §2

Shigella sonnei I EW33 [23] = assay: as above; assay type: cell-based; conditions: IEW33, 37° C., 20 hours
Description: as §2

[24] = test system: Pseudomonas aeruginosa 1101-76; assay: Protecting effect in experimental mice infections; assay type: in vivo, mice (ICR-strain); conditions: Pseudomonas aeruginosa 1101-76, 1.2 × 10^6 viable cells per mouse, survival 1 week
Description: Male mice of ICR-strain, aged 4 weeks and weighing 24±1 g., were used. Each experimental group consists of 8 animals.
A prescribed amount of pathogenic bacteria, suspended in 5% aqueous Mucin solution (0.5 ml.), was intraperitoneally injected into the test animals.
Subsequently, the above test compound in water (0.25 ml.) was administered to each of the test animals, subcutaneously three times at 0, 1, 3 hours or orally once at 1 hour after the infection of pathogenic bacteria, respectively.

Salmonella typhi 0-901 [25] = assay: M.I.C., serial agar dilution, nutrient agar (inoculum 10^5 cells/ml); assay type: cell-based; conditions: Salmonella enterica, 37° C., 18 hours
Description: (§3) M.I.C. test was conducted by an usual serial agar dilution method, (inoculum: 10^5 cells/ml.), using a nutrient agar which was incubated at 37° C. for 18 hours. M.I.C. value is expressed as the minimum concentration of the monopotassium salt of 3-(N-formyl-N-hydroxyamino)-trans-1-propenylphosphonic acid (mcg/ml.) which inhibits growth of microorganisms.

Shigella flexneri IaEW8 [26] = assay: as above; assay type: cell-based; conditions: 37° C., 18 hours
Description: as §3

[27] = test system: Bacillus subtilis ATCC6633; assay: as above; assay type: cell-based; conditions: 37° C., 18 hours
Description: as §3

[28] = test system: Escherichia coli 1341-18(R^+); assay: as above; assay type: cell-based; conditions: 37° C., 18 hours
Description: as §3

[29] = test system: Citrobacter freundii 1381-3; assay: as above; assay type: cell-based; conditions: 13813, 37° C., 18 hours
Description: as §3

[30] = test system: Serratia marcescens 1421-4; assay: as above; assay type: cell-based; conditions: 14214, 37° C., 18 hours
Description: as §3

[31] = test system: Salmonella typhimurium 1406; assay: as above; assay type: cell-based; conditions: Salmonella enterica, 37° C., 18 hours
Description: as §3

[32] = test system: Pseudomonas aeruginosa IAM 1095; assay: as above; assay type: cell-based; conditions: IAM1095, 37° C., 18 hours
Description: as §3

[33] = test system: Enterobacter cloacae 1401-4; assay: as above; assay type: cell-based; conditions: 14014, 37° C., 18 hours
Description: as §3

Proteus morganii 1433-2 [34] = assay: as above; assay type: cell-based; conditions: Morganella morganii, 14332, 37° C., 18 hours
Description: as §3

[35] = test system: Proteus inconstans 1436-21; assay: as above; assay type: cell-based; conditions: Providencia alcalifaciens, 143621, 37° C., 18 hours
Description: as §3

Proteus rettgeri 1434-3 [36] = assay: as above; assay type: cell-based; conditions: Providencia rettgeri, 14343, 37° C., 18 hours
Description: as §3

[37] = test system: Enterobacter aerogenes 1402-10; assay: as above; assay type: cell-based; conditions: Klebsiella aerogenes, 140210, 37° C., 18 hours
Description: as §3

[38] = test system: Staphylococcus aureus FDA209PJC-1; assay: as above; assay type: cell-based; conditions: FDA209PJC1, 37° C., 18 hours
Description: as §3

[39] = test system: Proteus mirabilis 1432-75; assay: as above; assay type: cell-based; conditions: 143275, 37° C., 18 hours
Description: as §3

[40] = test system: Klebsiella pneumoniae NCTC 418; assay: as above; assay type: cell-based; conditions: NCTC418, 37° C., 18 hours
Description: as §3

[41] = test system: Salmonella paratyphi A-1015; assay: as above; assay type: cell-based; conditions: Salmonella enterica, 37° C., 18 hours
Description: as §3

[42] = test system: Salmonella enteritidis 1891; assay: as above; assay type: cell-based; conditions: Salmonella enterica, 37° C., 18 hours
Description: as §3

[43] = test system: Proteus vulgaris IAM 1025; assay: as above; assay type: cell-based; conditions: IAM1025, 37° C., 18 hours
Description: as §3

Sarcina lutea PCI 1001 [44] = assay: as above; assay type: cell-based; conditions: Micrococcus luteus, PCI1001, 37° C., 18 hours
Description: as §3

Shigella sonnei I EW33 [45] = assay: as above; assay type: cell-based; conditions: IEW33, 37° C., 18 hours
Description: as §3

SMILES: O=CN(O)CCCP(=O)(O)O [monosodium salt of 3-(N-formyl-N-hydroxyamino)propylphosphonic acid]
- LD50 at 168 h (Acute toxicity, rat; oral, read-out: LD50, oral administration): > 11000 mg/kg
- LD50 at 168 h (Acute toxicity, rat; sc, subcutaneous, read-out: LD50, subcutaneous administration): 8000 mg/kg
- LD50 at 168 h (Acute toxicity, mouse; po, female, oral, read-out: LD50, oral administration): > 11000 mg/kg
- LD50 at 168 h (Acute toxicity, mouse; po, male, oral, read-out: LD50, oral administration): 11000 mg/kg
- LD50 at 168 h (Acute toxicity, mouse; sc, female, subcutaneous, read-out: LD50, subcutaneous administration): 8270 mg/kg
- LD50 at 168 h (Acute toxicity, mouse; sc, male, subcutaneous, read-out: LD50, subcutaneous administration): 8050 mg/kg

SMILES: CC(=O)N(O)CCCP(=O)(O)O [FR-900098, 3-(N-acetyl-N-hydroxyamino)propylphosphonic acid]
- antimicrobial activities [1]: antimicrobial activities against various pathogenic microorganisms

SMILES: O=CN(O)CCCP(=O)(O)O [monoammonium salt of 3-(N-formyl-N-hydroxyamino)propylphosphonic acid]
- MIC (Salmonella typhi 0-901 [2]): 0.39 µg/mL
- MIC (Shigella flexneri IaEW8 [3]): 12.5 µg/mL
- MIC [4]: 200 µg/mL
- MIC [5]: 3.13 µg/mL
- MIC [6]: 100 µg/mL
- MIC [7]: 25 µg/mL
- MIC [8]: 0.78 µg/mL
- MIC [9]: 12.5 µg/mL
- MIC [10]: 6.25 µg/mL
- MIC (Proteus morganii 1433-2 [11]): > 800 µg/mL
- MIC [12]: 3.13 µg/mL
- MIC [13]: 6.25 µg/mL
- MIC (Proteus rettgeri 1434-3 [14]): 1.56 µg/mL
- MIC [15]: 6.25 µg/mL
- MIC [16]: 6.25 µg/mL
- MIC [17]: 100 µg/mL
- MIC [18]: > 800 µg/mL
- MIC [19]: 12.5 µg/mL
- MIC [20]: 0.39 µg/mL
- MIC [21]: 3.13 µg/mL
- MIC (Sarcina lutea PCI 1001 [22]): ≤ 0.1 µg/mL
- MIC (Shigella sonnei I EW33 [23]): 100 µg/mL
- ED50, oral administration ([24]; orally once at 1 hour): 0.280 mg/mouse
- ED50, subcutaneous administration ([24]; s.c. three times at 0, 1, 3 hours): 0.228 mg/mouse

SMILES: O=CN(O)C/C=C/P(=O)(O)O [monopotassium salt of 3-(N-formyl-N-hydroxyamino)-trans-1-propenylphosphonic acid]
- MIC (Salmonella typhi 0-901 [25]): 0.78 µg/mL
- MIC (Shigella flexneri IaEW8 [26]): 50 µg/mL
- MIC [27]: 6.25 µg/mL
- MIC [28]: 25 µg/mL
- MIC [29]: 12.5 µg/mL
- MIC [30]: > 100 µg/mL
- MIC [31]: 12.5 µg/mL
- MIC [32]: 1.56 µg/mL
- MIC [33]: 12.5 µg/mL
- MIC (Proteus morganii 1433-2 [34]): > 100 µg/mL
- MIC [35]: 25 µg/mL
- MIC (Proteus rettgeri 1434-3 [36]): 6.25 µg/mL
- MIC [37]: 50 µg/mL
- MIC [38]: > 100 µg/mL
- MIC [39]: 0.39 µg/mL
- MIC [40]: 100 µg/mL
- MIC [41]: 25 µg/mL
- MIC [42]: 6.25 µg/mL
- MIC [43]: 1.56 µg/mL
- MIC (Sarcina lutea PCI 1001 [44]): 0.2 µg/mL
- MIC (Shigella sonnei I EW33 [45]): 25 µg/mL
